Assay results: article PMC12169614, “Exploring Long Arm Amide-Linked Side Chains in the Design of Antifungal Azole Inhibitors of Sterol 14α-Demethylase (CYP51)” (Journal of Medicinal Chemistry, 2025)

Columns and labels:
Y2301 OE ScCYP51 Y140F = assay: MIC80 determination, strain Y2301; assay type: cell-based, S. cerevisiae; conditions: Saccharomyces cerevisiae, 48 h, pH 6.8
Description: (§1) Cells were seeded at an OD600 nm of 0.005 (1.5 × 10^4 CFU), and the plates were incubated at 30 °C with shaking at 200 rpm for 48 h for S. cerevisiae strains and 24 h for C. albicans . Cell growth was assessed by measuring the OD600 nm using a Synergy 2 multimode plate reader (BioTek Instruments, VT, USA). Each MIC80 was determined using triplicate measurements for pools of 4 clones of each strain in three separate experiments.

Y2459 OE CaCYP51 CaCpr = assay: MIC80 determination, strain Y2459; assay type: cell-based, S. cerevisiae; conditions: Saccharomyces cerevisiae, 48 h, pH 6.8
Description: as §1

CaCYP51 Y132H + K143R = CaCYP51 Y132H + K143R (Candida albicans, UniProt P10613, K143R/Y132H); conditions: footnote b; ref number not given; cited from earlier work
Sequence of CaCYP51 Y132H + K143R (P10613 whole entry Y132H/K143R): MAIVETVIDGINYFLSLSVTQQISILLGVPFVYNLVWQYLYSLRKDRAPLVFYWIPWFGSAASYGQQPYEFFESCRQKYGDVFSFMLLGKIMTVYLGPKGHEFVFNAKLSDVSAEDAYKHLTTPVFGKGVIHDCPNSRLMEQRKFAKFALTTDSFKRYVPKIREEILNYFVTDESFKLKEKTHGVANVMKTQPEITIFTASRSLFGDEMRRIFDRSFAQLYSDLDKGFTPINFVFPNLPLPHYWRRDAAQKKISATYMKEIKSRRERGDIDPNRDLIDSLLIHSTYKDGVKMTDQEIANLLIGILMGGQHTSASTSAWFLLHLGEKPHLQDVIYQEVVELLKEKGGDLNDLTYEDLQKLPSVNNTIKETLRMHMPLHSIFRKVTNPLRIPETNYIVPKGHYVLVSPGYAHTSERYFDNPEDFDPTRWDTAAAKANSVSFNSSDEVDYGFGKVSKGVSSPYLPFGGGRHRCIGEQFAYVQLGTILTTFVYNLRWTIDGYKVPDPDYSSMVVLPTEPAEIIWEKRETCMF

Y2767 OE CauCYP51 = assay: MIC80 determination, strain Y2767; assay type: cell-based, S. cerevisiae; conditions: Saccharomyces cerevisiae
Description: as §1

Y611 FHB3 = assay: MIC80 determination, C. albicans clinical isolate Y611 FHB3; assay type: cell-based; conditions: Candida albicans, 24 h, pH 7
Description: as §1

Y2765 OE CauMDR1 = assay: MIC80 determination, strain Y2765; assay type: cell-based, S. cerevisiae; conditions: Saccharomyces cerevisiae
Description: as §1

Y2374 OE CgCYP51 = assay: MIC80 determination, strain Y2374; assay type: cell-based, S. cerevisiae; conditions: Saccharomyces cerevisiae
Description: as §1

Y2769 OE CauCYP51 K143R = assay: MIC80 determination, strain Y2769; assay type: cell-based, S. cerevisiae; conditions: Saccharomyces cerevisiae
Description: as §1

[1] = tested on: Y2747 OE AfCYP51B AfCPR AfERG6; assay: MIC80 determination, strain Y2747; assay type: cell-based, S. cerevisiae; conditions: Saccharomyces cerevisiae
Description: as §1

MCF-10A cells = assay: Viability (CellTiter Blue) assay; assay type: cell-based, human; conditions: 48 h, 10 μM to 1 pM
Description: Human epithelial breast cells, MCF-10A, were routinely cultured in DMEM/F-12 (Fisher Scientific, Loughborough, UK) containing 5% heat-inactivated horse serum (ThermoFisher Scientific, UK), 20 ng/mL hEGF (Merck Life Science, Dorset, UK), 500 ng/mL hydrocortisone (Merck Life Science, Dorset, UK) and 10 μg/mL insulin (Merck Life Science, Dorset, UK) under tissue culture conditions (37 °C, 5% CO2 in a humidified incubator). Cells were passaged upon reaching confluency using 0.25% Trypsin/EDTA (Fisher Scientific, Loughborough, UK) for a maximum of 15 passages from defrosting. […].
Cells were seeded in 100 μL of complete medium per well in a black, flat-bottomed, 96-well tissue-culture-treated plate (Fisher Scientific, Loughborough, UK) at a density of 4000 cells/well and incubated under tissue culture conditions for 24 h. Cells were then treated by mixing in an additional 100 μL of drug/diluent control in complete medium to give final concentrations of 10 μM–1 pM. DMSO was used as a vehicle control, and as a positive toxic control, staurosporine was added at a final concentration of 10 μM. Cells were then incubated for 48 h under tissue culture conditions before the treatments were replaced with fresh media before performing the CellTiter Blue assay (Promega, Southampton, UK) was performed following the manufacturer's instructions. […]

Y1 = assay: MIC80 determination, C. albicans clinical isolate Y1; assay type: cell-based; conditions: Candida albicans, pH 7, 24 h
Description: as §1

Y2300 OE ScCYP51 = assay: MIC80 determination, strain Y2300; assay type: cell-based, S. cerevisiae; conditions: Saccharomyces cerevisiae, 48 h, pH 6.8
Description: as §1

Y2651 OE CYP51 F5 RaCPR = assay: MIC80 determination, strain Y2651; assay type: cell-based, S. cerevisiae; conditions: Saccharomyces cerevisiae
Description: as §1

Y2513 OE ScCYP51 Y140H = assay: MIC80 determination, strain Y2513; assay type: cell-based, S. cerevisiae; conditions: Saccharomyces cerevisiae, 48 h, pH 6.8
Description: as §1

Y71 SC5314 = assay: MIC80 determination, C. albicans clinical isolate Y71 SC5314; assay type: cell-based; conditions: Candida albicans; C. albicans clinical isolate Y71 SC5314; pH 7, 24 h
Description: as §1

Y2768 OE CauCYP51 Y132F = assay: MIC80 determination, strain Y2768; assay type: cell-based, S. cerevisiae; conditions: Saccharomyces cerevisiae
Description: as §1

C. albicans = tested on: C. albicans; parameters: method as in number not given; conditions: ref number not given; cited from earlier work
Y433 OE CgCDR1 = assay: MIC80 determination, strain Y433; assay type: cell-based, S. cerevisiae; conditions: Saccharomyces cerevisiae
Description: as §1

[2] = tested on: Y2746 OE AfCYP51A AfCPR AfERG6; assay: MIC80 determination, strain Y2746; assay type: cell-based, S. cerevisiae; conditions: Saccharomyces cerevisiae
Description: as §1

Y570 OE CaCDR1B = assay: MIC80 determination, strain Y570; assay type: cell-based, S. cerevisiae; conditions: Saccharomyces cerevisiae, 48 h, pH 6.8
Description: as §1

Y525 OE CaMDR1a = assay: MIC80 determination, strain Y525; assay type: cell-based, S. cerevisiae; conditions: Saccharomyces cerevisiae, 48 h, pH 6.8
Description: as §1

Y2721 OE CpCYP51 = assay: MIC80 determination, strain Y2721; assay type: cell-based, S. cerevisiae; conditions: Saccharomyces cerevisiae
Description: as §1

2711 CnCYP51 OE CnCPR = assay: MIC80 determination, strain 2711; assay type: cell-based, S. cerevisiae; conditions: Saccharomyces cerevisiae
Description: as §1

Y2766 OE CauCDR1 = assay: MIC80 determination, strain Y2766; assay type: cell-based, S. cerevisiae; conditions: Saccharomyces cerevisiae
Description: as §1

Y2411 Endog. ScCYP51 = assay: MIC80 determination, strain Y2411; assay type: cell-based, S. cerevisiae; conditions: Saccharomyces cerevisiae; strain Y2411 Endog. ScCYP51; SD pH 6.8, 30 °C, 48 h
Description: as §1

CaCYP51 Y132F = CaCYP51 Y132F (Candida albicans, UniProt P10613, Y132F); conditions: footnote b; ref number not given; cited from earlier work
Sequence of CaCYP51 Y132F (P10613 whole entry Y132F): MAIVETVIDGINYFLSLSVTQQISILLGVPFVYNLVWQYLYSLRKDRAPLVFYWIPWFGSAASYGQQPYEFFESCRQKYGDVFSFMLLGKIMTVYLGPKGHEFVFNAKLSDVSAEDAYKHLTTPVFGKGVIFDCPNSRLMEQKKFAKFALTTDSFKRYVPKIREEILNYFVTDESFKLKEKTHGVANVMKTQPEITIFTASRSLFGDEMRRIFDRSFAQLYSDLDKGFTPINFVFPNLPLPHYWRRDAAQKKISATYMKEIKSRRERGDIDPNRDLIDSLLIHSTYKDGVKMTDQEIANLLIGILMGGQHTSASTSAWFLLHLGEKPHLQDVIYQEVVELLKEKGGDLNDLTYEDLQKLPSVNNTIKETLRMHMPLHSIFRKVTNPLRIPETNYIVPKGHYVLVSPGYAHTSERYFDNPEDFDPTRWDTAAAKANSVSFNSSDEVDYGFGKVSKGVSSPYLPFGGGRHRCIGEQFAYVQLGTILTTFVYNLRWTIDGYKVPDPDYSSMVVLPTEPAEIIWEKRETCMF

Y2649 OE CYP51 F1 RaCPR = assay: MIC80 determination, strain Y2649; assay type: cell-based, S. cerevisiae; conditions: Saccharomyces cerevisiae
Description: as §1

Y2716 OE CpCYP51 Y132F = assay: MIC80 determination, strain Y2716; assay type: cell-based, S. cerevisiae; conditions: Saccharomyces cerevisiae
Description: as §1

Y610 FHB1 = assay: MIC80 determination, C. albicans clinical isolate Y610 FHB1; assay type: cell-based; conditions: Candida albicans; C. albicans clinical isolate Y610 FHB1 (weakly expresses CaCDR1); pH 7, 24 h
Description: as §1

CC[C@@H]([C@H](C)O)n1ncn(-c2ccc(N3CCN(c4ccc(OC[C@@H]5CO[C@@](Cn6cncn6)(c6ccc(F)cc6F)C5)cc4)CC3)cc2)c1=O [PCZ, posaconazole, reference compound]
MIC80 (Y2301 OE ScCYP51 Y140F): 0.191 ± 0.041 µM
MIC80 (Y2459 OE CaCYP51 CaCpr): 0.22 ± 0.07 µM
IC50 (CaCYP51 Y132H + K143R): 196 ± 7 nM
MIC80 (Y2767 OE CauCYP51): 0.196 ± 0.022 µM
MIC80 (Y611 FHB3): 0.53 µM
MIC80 (Y2765 OE CauMDR1): 0.096 ± 0.003 µM
MIC80 (Y2374 OE CgCYP51): 0.332 µM
MIC80 (Y2769 OE CauCYP51 K143R): 0.117 ± 0.005 µM
MIC80 [1]: 0.07 ± 0.024 µM
cell viability (tolerance in words) (MCF-10A cells): no difference observed
MIC80 (Y1): 0.07 µM
MIC80 (Y2300 OE ScCYP51): 2 ± 0.05 µM
MIC80 (Y2651 OE CYP51 F5 RaCPR): 0.054 ± 0.011 µM
MIC80 (Y2513 OE ScCYP51 Y140H): 0.147 ± 0.057 µM
MIC80 (Y71 SC5314): 0.073 µM
MIC80 (Y2768 OE CauCYP51 Y132F): 0.168 ± 0.006 µM
MIC (C. albicans): ≤ 0.03 µg/mL
MIC80 (Y433 OE CgCDR1): 23.8 µM
MIC80 [2]: 0.033 ± 0.014 µM
MIC80 (Y570 OE CaCDR1B): > 25 µM
MIC80 (Y525 OE CaMDR1a): 0.218 µM
MIC80 (Y2721 OE CpCYP51): 0.122 ± 0.037 µM
MIC80 (2711 CnCYP51 OE CnCPR): 0.035 ± 0.015 µM
MIC80 (Y2766 OE CauCDR1): 0.971 ± 0.049 µM
MIC80 (Y2411 Endog. ScCYP51): 0.097 ± 0.04 µM
IC50 (CaCYP51 Y132F): 343 ± 20 nM
MIC80 (Y2649 OE CYP51 F1 RaCPR): 0.1 µM
MIC80 (Y2716 OE CpCYP51 Y132F): 0.135 ± 0.058 µM
MIC80 (Y610 FHB1): 0.151 ± 0.016 µM
